# Reference: patent US6881824B1, “Peptides suitable for use in antigen specific immunosuppressive therapy” (Akzo Nobel N.V., priority 1996, dated 2005)
# Ends that are not written are not given here.
# Legend:
# [1] = target: T1, DR4 (DRB1*0401) molecules (Homo sapiens, UniProt P01903+P01911, A100K/A169T/F76Y/I96L/K127E/L162R/M171V/N62H/P40V/Q125Y/R42H/S133A/S149N/S66Y/V115G/V209L/W38E); experiment: Peptide HLA-DR binding assay (semi-quantitative competition binding); settings: for IC50: Table IIIA, competition with biotinylated marker peptide HA 309 Y→F, pH5.0, 44 hr RT
# T1 construct: molecules were purified from the homozygous EBV-transformed human B lymphoblastoid cell lines Huly138IC2 and BM92 using the mAb; endogenous in cells
# Protocol: DR4 (DRB1*0401) and DR4 (DRB1*0404) molecules were purified from the homozygous EBV-transformed human B lymphoblastoid cell lines Huly138IC2 and BM92 using the mAb t243, directed against a monomorphic determinant on the DR-complex (Lampson, L. A and R. Levy (1980), J. Immunol. 125:293 299).
# The peptide binding studies were performed using a semi-quantitative competition binding assay (Joosten et al 1994, Int. Immunol. 6, 751). Briefly, purified HLA-DR molecules (30 nM DR4(DRB1*0401) or 15 nM DR4 (DRB1*0404) were incubated at pH5.0 with 50 nM biotinylated marker peptide (HA 309y→F) and a concentration range of competitor peptide in a final volume of 25 μl binding buffer (PBS containing 0.01% […], 0.05% NP-40, 5% DMSO, 1 mM AEBSF, 1 mM N-ethyl maleimide, 8 mM EDTA and 10 μm pepstatin A). After 44 hr of incubation at RT, HLA DR bound marker peptide was separated from free marker peptide using a 96 well vacuum dotblot apparatus (Hybri. dot, BRL) and a nitrocellulose membrane (Hybond ECL, Amersham, UK). The nitrocellulose filters were blocked with 0.5% DNA blocking reagent (Boehringer) in 0.1 M maleic acid, 150 mM NaCl, pH7.5.
# After 0.5-1 hr, the filters were washed in PBS, 0.05% Tween 20 (Sigma) and incubated with Strepcavidin-HRPO (Southern Biotechnology) in a 1:10.000 dilution. Biotinylated peptides were detected by enhanced chemiluminescence using a Western Blot ECL kit (Amersham). Exposure of the preflashed films (Hyperfilm-ECL, Amersham) was for 10 min. The spots were analysed by scanning the films and using Image Quant/Excel software for analysis.
# The affinity of a given peptide for binding DRB1*0401-encoded molecules was related to competition with the marker peptide. This relative binding affinity was defined as the peptide concentration at which the signal was reduced to 50% (IC50).
# [2] = test system: PBMC from RA patients carrying the DR4 (DRB1*0401) specificity; experiment: Peptide-induced proliferative responses of PBMC from RA patients; type: cell-based, human; settings: 100 and 10 microgram/ml, 7 days, 3H-thymidine incorporation; for Peptide-induced proliferative response of PBMC, RA 191: RA patient 191, 0401, R; for Peptide-induced proliferative response of PBMC, RA 286: RA patient 286, 0401, R
# Protocol: This study included 7 DR4(DRB1*0401)-positive patients diagnosed as suffering from RA according to the ARA criteria (Arnett et al., (1988), Arthritis Rheum. 31, 315). Peripheral blood samples were obtained with informed consent. There were five women and two men aged 46-79 years. Their duration of disease ranged from over 10 to over 30 years. Three out of 7 patients had at least 3 swollen joints. […] All patients were on medication: Four patients were treated with prednisone, three patients received anti-rheumatic agents and 4 patients were treated with NSAID's as well.
# In order to identify T-cell epitopes within HC gp-39, 59 peptides of 16 AA in length, overlapping by 10 AA were tested for their capacity to induce a proliferative response in PBMC from RA patients and healthy controls carrying the DR4 (DRB1*0401) specificity (Table 1).
# PBMC obtained from heparinized venous peripheral blood were isolated by standard centrifugation on a Ficoll-Paque gradient. Cells were cultured in four-fold at a concentration of 1,5×10^5 cells/well in medium supplemented with 10% heat-inactivated, autologous plasma, L-glutamine, 2-ME and antibiotics in flatbottomed microtiter plates. Cells were incubated in medium alone or in the presence of phytohaemagglutinin (PHA) (2:5 μg/ml) to assert cell viability, or in the presence of 10 or 100 μg/ml of the HC gp-39-derived peptides. In several cases, sets of 2 or 3 sequential peptides were tested due to limited PBMC numbers of individual donors. Cultures were incubated in a total volume of 210 μl for 7 days at […] in a humidified atmosphere of 5% CO2. Cultures were pulsed during the last 18 hours with 0.25 μCi ^3H-thymidine ([^3H]TdR). Cells were harvested on glassfiber filters and [^3H] TdR incorporation was measured by gas scintillation (Packard Matrix 96 βcounter). Only peptides inducing a proliferative response at both 10 and 100 μg/ml were considered to contain a T-cell epitope. Responses were defined positive if stimulation index values (SI, antigen-specific counts per 5 min (cp5 m)/background cp5 m) exceeded or equaled 2.
# T-cell reactivity to HC gp-39-derived peptide as analyzed by measuring the PBMC proliferative response in DR4 (DRB1*0401)-positive RA patients and healthy donors. Proliferative responses were tested in autologous plasma. In Table IIIA and IIIB the results of 7 experiments are presented showing the responses of RA patients (Table IIIA) and the responses of healthy donors (Table IIIB) to 59 overlapping sequences derived from HC gp-39.
# [3] = target: T2, DR4 (DRB1*0401) molecules purified from the homozygous EBV-transformed human B lymphoblastoid cell line … (human, UniProt P01903 26-254); experiment: competition binding assay on purified DR4(DRB1*0401)
# T2 construct: mature; That form is inferred from purification of the native complex
Molecule,binding result [3],"Relative affinity of binding to DR4 (DRB1*0401), in words [1]",IC50 [1],also measured
"TIDSSYDIAKISQHLD [compound 28, TIDSSYDIAKISQHLD]",–,high to intermediate relative affinity,< 1 µM,–
"PPFLRTHGFDGLDLAW [compound 18, PPFLRTHGFDGLDLAW]",–,high to intermediate relative affinity,10 to 100 µM,"Peptide-induced proliferative response of PBMC, RA 276 ([2]; RA patient 276, 0401, R): pos (positive responses to both 100 and 10 microgram/ml of peptide or sets of peptides (SI≧2 were regarded positive))"
"DIAKISQHLDFISIMT [compound 29, DIAKISQHLDFISIMT]",–,high to intermediate relative affinity,< 1 µM,"Peptide-induced proliferative response of PBMC, RA 259 ([2]; RA patient 259, 0401, R): pos (positive responses to both 100 and 10 microgram/ml of peptide or sets of peptides (SI≧2 were regarded positive))"
"WALDLDDFQGSFCGQD [compound 56, WALDLDDFQGSFCGQD]",–,high to intermediate relative affinity,< 1 µM,"Peptide-induced proliferative response of PBMC, RA 191 [2]: pos (positive responses to both 100 and 10 microgram/ml of peptide or sets of peptides (SI≧2 were regarded positive)); Peptide-induced proliferative response of PBMC, RA 286 [2]: pos (positive responses to both 100 and 10 microgram/ml of peptide or sets of peptides (SI≧2 were regarded positive))"
"DFQGSFCGQDLRFPLT [compound 57, DFQGSFCGQDLRFPLT]",–,high to intermediate relative affinity,1 to 10 µM,–
"YREGDGSCFPDALDRF [peptide 3, YREGDGSCFPDALDRF]",–,high to intermediate relative affinity,10 to 100 µM,–
"GTLAYYEICDFLRGAT [compound 46, GTLAYYEICDFLRGAT]",–,high to intermediate relative affinity,< 1 µM,–
"DLAWLYPGRRDKQHFT [peptide 20, DLAWLYPGRRDKQHFT]",–,poor relative affinity,100 to 1000 µM,"Peptide-induced proliferative response of PBMC, RA 286 [2]: pos (positive responses to both 100 and 10 microgram/ml of peptide or sets of peptides (SI≧2 were regarded positive))"
"NTQSRRTFIKSVPPFL [compound 16, NTQSRRTFIKSVPPFL]",–,high to intermediate relative affinity,< 1 µM,"Peptide-induced proliferative response of PBMC, RA 286 [2]: pos (positive responses to both 100 and 10 microgram/ml of peptide or sets of peptides (SI≧2 were regarded positive))"
"RGATVHRTLGQQVPYA [compound 48, RGATVHRTLGQQVPYA]",–,high to intermediate relative affinity,10 to 100 µM,–
"TFIKSVPPFLRTHGFD [compound 17, TFIKSVPPFLRTHGFD]",–,high to intermediate relative affinity,1 to 10 µM,–
"HGFDGLDLAWLYPGRR [compound 19, HGFDGLDLAWLYPGRR]",–,high to intermediate relative affinity,10 to 100 µM,–
"EICDFLRGATVHRTLG [compound 47, EICDFLRGATVHRTLG]",–,high to intermediate relative affinity,< 1 µM,"Peptide-induced proliferative response of PBMC, RA 191 [2]: pos (positive responses to both 100 and 10 microgram/ml of peptide or sets of peptides (SI≧2 were regarded positive))"
"PASKLVMGIPTFGRSF [compound 39, PASKLVMGIPTFGRSF]",–,high to intermediate relative affinity,1 to 10 µM,–
"VKSKVQYLKDRQLAGA [compound 53, VKSKVQYLKDRQLAGA]",–,high to intermediate relative affinity,< 1 µM,–
MGIPTFGRSFTLASSE [HC gp-39 peptide 40 (residues 256-271)],binds,–,–,–
YTSWSQYREGDGSCFP [HC gp-39 peptide 2 (residues 28-43)],binds,–,–,–

# Second part, led by results:
binding result [3],Molecule,"Relative affinity of binding to DR4 (DRB1*0401), in words [1]",IC50 [1],also measured
binds,SPLFRGQEDASPDRFS [HC gp-39 peptide 34 (residues 220-235)],–,–,–
binds,NTQSRRTFIKSVPPFL [HC gp-39 peptide 16 (residues 112-127)],–,–,–
binds,HGFDGLDLAWLYPGRR [HC gp-39 peptide 19 (residues 130-145)],–,–,–
binds,RGATVHRTLGQQVPYA [HC gp-39 peptide 48 (residues 304-319)],–,–,–
binds,EICDFLRGATVHRTLG [HC gp-39 peptide 47 (residues 298-313)],–,–,–
binds,PNLKTLLSVGGWNFGS [HC gp-39 peptide 12 (residues 88-103)],–,–,–
binds,DLAWLYPGRRDKQHFT [HC gp-39 peptide 20 (residues 136-151)],–,–,–
binds,GTLAYYEICDFLRGAT [HC gp-39 peptide 46 (residues 292-307)],–,–,–
binds,LAGAMVWALDLDDFQG [HC gp-39 peptide 55 (residues 346-361)],–,–,–
binds,PASKLVMGIPTFGRSF [HC gp-39 peptide 39 (residues 250-265)],–,–,–
binds,DIAKISQHLDFISIMT [HC gp-39 peptide 29 (residues 190-205)],–,–,–
binds,MLRLGAPASKLVMGIP [HC gp-39 peptide 38 (residues 244-259)],–,–,–
binds,YREGDGSCFPDALDRF [HC gp-39 peptide 3 (residues 34-49)],–,–,–
binds,GRSFTLASSETGVGAP [HC gp-39 peptide 41 (residues 262-277)],–,–,–
binds,PPFLRTHGFDGLDLAW [HC gp-39 peptide 18 (residues 124-139)],–,–,–
binds,VKSKVQYLKDRQLAGA [HC gp-39 peptide 53 (residues 334-349)],–,–,–
binds,TIDSSYDIAKISQHLD [HC gp-39 peptide 28 (residues 184-199)],–,–,–
